Source: paper PMC4778863, “A Four-Point Screening Method for Assessing Molecular Mechanism of Action (MMOA) Identifies Tideglusib as a Time-Dependent Inhibitor of Trypanosoma brucei GSK3β” (PLoS Neglected Tropical Diseases, 2016)
Like-named read-outs stand apart in the source and are kept apart here.

Key:
Trypanosomes = assay: Trypanosome viability after short term (6 hour) exposure and wash-out; assay type: cell-based, Trypanosoma brucei; conditions: for trypanosome proliferation/viability after removal of drug following 6 hour exposure: drug-free medium, monitored for 44 hours
Procedure: The effect of tideglusib on trypanosome viability after short term exposure was evaluated to determine if the molecule is cidal or cytostatic.
Fig 9 Trypanosome viability after short term exposure with tideglusib. Trypanosomes (5 x 10^5/mL in HMI-9 medium) were treated with pentamidine (or water solvent control) or tideglusib (5 μM, 10 μM, or DMSO solvent control) for 6 hours (37°C, 5% CO2) and then cultured in drug-free treatment as detailed in panel (A). Trypanosome densities were determined after 6 hour treatment (B), and the drugs washed from the cells by centrifugation and resuspension in fresh medium (to a density of 0.5 x 10^5/mL). Trypanosome proliferation in the fresh medium was monitored for 44 hours (37°C, 5% CO2) (C). Error between four separate cultures are shown.

TbGSK3β [1] = target: T1, TbGSK3β (Trypanosoma brucei brucei, UniProt Q388M1); assay: biochemical; assay type: biochemical; conditions: for Ratio Preinc/no preinc: % inhibition at 30 min preincubation / % inhibition at 0 min preincubation at 10 μM ATP; for ATP competition following preincubation / ATP competition without preincubation: 10 μM versus 100 μM ATP; for ATP competition following preincubation: 30 min preincubation; for time dependence: effect of 30 min preincubation on TbGSK3β activity: four point MMOA assay, 10 μM and 100 μM ATP
T1 construct: Full-length TbGSK3β (Gene DB ID Tb927.10.13780); 6X His (C); made in house; host or cells: BL21 (DE3) E. coli
T1 sequence (Q388M1 1-352): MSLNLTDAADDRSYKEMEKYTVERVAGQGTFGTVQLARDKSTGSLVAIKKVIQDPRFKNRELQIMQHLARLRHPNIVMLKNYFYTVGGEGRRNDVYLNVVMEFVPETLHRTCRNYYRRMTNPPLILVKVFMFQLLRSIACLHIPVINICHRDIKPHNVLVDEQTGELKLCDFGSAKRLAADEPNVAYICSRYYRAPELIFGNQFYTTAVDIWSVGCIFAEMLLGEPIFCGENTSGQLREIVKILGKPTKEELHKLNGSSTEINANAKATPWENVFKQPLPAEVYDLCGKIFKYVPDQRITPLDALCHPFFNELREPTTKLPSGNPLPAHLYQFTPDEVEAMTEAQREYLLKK
Procedure: TbGSK3β activity was measured by following the ADP formation associated with the phosphorylation of GSM peptide and detected with ADP-Glo at 23°C. The enzyme reaction was conducted in a volume of 20 μL in a buffer containing 20 mM NaCl, 15 mM HEPES pH 7.4, 1 mM EGTA, 10 mM MgCl2, 0.02% Tween. These assays contained GSM at 10μM (approximating Km) or 80 μM (approximating Vmax). ATP was added at 10 μM and 100 μM to approximate Km and Vmax, respectively.
All reactions were incubated for 5 minutes in microcentrifuge tubes, and reactions were terminated at 80°C for 4 min. Of 20 μL reactions, 17.5 μL were transferred into 384 well-plates. Promega ADP-Glo procedures were carried out and phosphorylation measured by Luminoskan Ascent (Thermo Labsystems, Waltham MA). For pre-incubation experiments, TbGSK3β was preincubated at room temperature with inhibitor, GSM and buffer for 30 min. Inhibitors were added in DMSO to a final concentration of DMSO in the reactions of <5%. The kinase reaction was then started by adding ATP. For non-preincubation reactions, the kinase reactions were started by adding TbGSK3β to a mixture containing inhibitor, ATP, GSM and buffer. DMSO was added to all control reactions.
IC50 for inhibition TbGSK3β was determined as a function of preincubation time (Fig 3). Preincubated reactions were preincubated with inhibitor, TbGSK3β, GSM peptide, and buffer at room temperature; after 30 minutes reactions were initiated with the addition of ATP. Reactions with 0 min preincubation were initiated with the addition of TbGSK3β. Reactions were run for 5 min at room temperature, and stopped at 80°C. ADP product formation was measured by ADP-Glo kit.
Preincubated reactions were preincubated with inhibitor, TbGSK3β, GSM peptide, and buffer at room temperature; after 30 minutes reactions were initiated with the addition of ATP. Reactions with 0 min preincubation were initiated with the addition of TbGSK3β. Reactions were run for 5 min at room temperature, and stopped heat at 80°C, followed by ice bath, and ADP product formation was measured by ADP-Glo kit. All concentrations of tideglusib and controls with and without TbGSK3β were kept at 1% DMSO. Black = 30 minute preincubation Grey = 0 minute preincubation.
Time dependent inhibition was evaluated by preincubation of TbGSK3β with 60 nM tideglusib and 6 nM GW-8510 with 10μM and 100μM ATP. […] (B). […] All reactions preincubated or not preincubated with TbGSK3β for 30 min at room temperature. Experiments run with 10μM GSM peptide, 10μM ATP, and buffer. Minute preincubation (30 min) was preincubated with inhibitor, TbGSK3β, GSM peptide, and buffer. ATP was mixed to initiate reaction. No preincubation contained inhibitor, GSM peptide, ATP, and buffer. The reaction was initiated with TbGSK3β. Reactions were run at room temperature for 5 min and stopped at 80°C. ADP formed was measured by ADP-Glo kit. Values are mean +/- standard error. N = 3 for each experiment and experiments were run in duplicates. Control reactions contained DMSO and background was determined using a zero time incubation and subtracted from all reactions. Black = 30 min preincubation Grey = No preincubation.

human GSK3β = test system: human GSK3β; parameters: method as in PMID 22102280; conditions: following preincubation; read-out: IC50 against human GSK3β; cited from earlier work
TbGSK3β [2] = target: T1, TbGSK3β; assay: Irreversibility: TbGSK3β activity following 100-fold dilution; assay type: biochemical; conditions: 100 nM inhibitor preincubated 30 min with 50 nM TbGSK3β, diluted 100 fold into 100 μM ATP, 80 μM GSM; up to 2 hr
Procedure: Tideglusib and GW8510 were evaluated for irreversibility by measuring the TbGSK3β activity following a 100-fold dilution with reaction buffer. In these experiments tideglusib and GW8510 [100 nM] were preincubated with 50 nM TbGSK3β for 30 min at which time the reaction was diluted 100 fold into a solution containing 100 μM ATP and 80 μM GSM. The activity was then measured for up to two hours (Fig 6). […] The final concentration of tideglusib and GW8510 following dilution was 1 nM.
Tideglusib [100 nM, GW8510 [100 nM] and DMSO were preincubated with 50 nM TbGSK3 for 30 min. After a 100 fold dilution activity was measured and compared to DMSO containing reaction. Data expressed percent inhibition of DMSO activity. Data represent the average of two separate experiments for GW8510 and three for tideglusib. All points in each experiment were run in duplicate.

[3] = test system: Bloodstream form Trypanosoma brucei; assay: Parasite assay: trypanosome proliferation, 48 hours, Coulter Counter; assay type: cell-based, strain CA427; conditions: read-out: GI50 (concentration at which trypanosome proliferation was inhibited by 50%)
[4] = cited from earlier work
[5] = parameters: method as in PMID 19523516; conditions: mice; oral administration; cited from earlier work
[6] = test system: T. brucei brucei strain 427; conditions: cited from earlier work
[7] = substrate: CC(C)C[C@H](NC(=O)[C@H](CO)NC(=O)[C@@H]1CCCN1C(=O)[C@H](CO)NC(=O)[C@@H]1CCCN1C(=O)[C@@H]1CCCN1C(=O)[C@@H](NC(=O)[C@H](CO)NC(=O)[C@H](C)NC(=O)[C@@H]1CCCN1C(=O)[C@H](CCCNC(=N)N)NC(=O)[C@H](CCCNC(=N)N)NC(=O)[C@@H](N)CCCNC(=N)N)C(C)C)C(=O)N[C@@H](CO)C(=O)N[C@@H](CCCNC(=N)N)C(=O)N[C@@H](Cc1c[nH]cn1)C(=O)N[C@@H](CO)C(=O)N[C@@H](COP(=O)(O)O)C(=O)N[C@@H](Cc1c[nH]cn1)C(=O)N[C@@H](CCC(N)=O)C(=O)N[C@@H](CCCNC(=N)N)C(=O)N[C@@H](CCCNC(=N)N)C(=O)O; assay: purified protein, by the assay type; assay type: biochemical; conditions: other: substrate versus rate plots (Fig 2); pH 7.4
[8] = 10 μM ATP and 10 μM GSM, ± standard deviation, n = 3, read-out: IC50
[9] = IC50, 10 μM ATP and 10 μM GSM, ± standard deviation, n = 3
[10] = IC50 for inhibition TbGSK3β, non-preincubated reactions, 0 min preincubation, 10 μM GSM, 10 μM ATP, kinase 10 nM
[11] = IC50 for inhibition TbGSK3β, preincubated reactions, 30 min preincubation with inhibitor, TbGSK3β, GSM, 10 μM GSM, 10 μM ATP, kinase 10 nM

N=C(N)c1ccc(OCCCCCOc2ccc(C(=N)N)cc2)cc1 [pentamidine]
trypanosome proliferation/viability after removal of drug following 6 hour exposure (Trypanosomes): killed all observed trypanosomes

Cc1c[nH]c(-c2cnc(NCCNc3ccc(C#N)cn3)nc2-c2ccc(Cl)cc2Cl)n1 [CT99021]
IC50 (TbGSK3β [1]; [8]): 200 ± 80 nM | Ratio Preinc/no preinc (TbGSK3β [1]): 0.97

Nc1cccc(-c2cc3c(Oc4cccc(O)c4)ncnc3[nH]2)c1 [TWS119]
IC50 (TbGSK3β [1]; [8]): 600 ± 140 nM | Ratio Preinc/no preinc (TbGSK3β [1]): 1

Cc1cc(Nc2nc(N[C@@H](C)c3ccc(F)cc3)c(C#N)cc2F)n[nH]1 [AZ960]
IC50 (TbGSK3β [1]; [9]): 4100 ± 1270 nM

Cc1cc(Nc2cc(CN3CCOCC3)c3nc(C)c(Cc4ccc(Cl)cc4F)n3n2)n[nH]1 [LY278544]
IC50 (TbGSK3β [1]; [8]): 500 ± 120 nM | Ratio Preinc/no preinc (TbGSK3β [1]): 0.83

O=c1sn(-c2cccc3ccccc23)c(=O)n1Cc1ccccc1 [Tideglusib]
IC50 (human GSK3β): […] | ATP competition following preincubation (TbGSK3β [1]): non-competitive behavior | ATP competition without preincubation (TbGSK3β [1]; no preincubation): competed with ATP | shift in activity at higher concentration of peptide substrate GSM (TbGSK3β [1]; 80 μM versus 10 μM GSM, 10 μM ATP, tideglusib 0.06 μM (S1 Fig)): […] | Ratio Preinc/no preinc (TbGSK3β [1]): […] | IC50 (TbGSK3β [1]; [9]): […] | IC50 (TbGSK3β [1]; [10]): […] | IC50 (TbGSK3β [1]; [11]): 43 nM | time dependence: effect of 30 min preincubation on TbGSK3β activity (TbGSK3β [1]): decreased the enzyme activity following preincubation | progress curves: percent inhibition / rate of product formation with time (TbGSK3β [1]; no preincubation, 100 μM ATP, 80 μM GSM, 5-60 min): […] | enzyme activity following 100-fold dilution (reversibility) (TbGSK3β [2]): […] | trypanosome proliferation during 6 hour treatment (Trypanosomes; 10 μM, 5 x 10^5/mL): […] | trypanosome growth during 6 hour treatment (Trypanosomes; 5 or 10 μM, high trypanosome density 5 x 10^5/mL): markedly slowed trypanosome growth | growth rate after recovery from exposure (Trypanosomes; after the initial lag in recovered growth): […] | trypanosome proliferation/viability after removal of drug following 6 hour exposure (Trypanosomes): […] | cidal or cytostatic (Trypanosomes; high trypanosome cell densities): cytostatic | GI50 [3]: 2300 nM | tolerability in phase II studies ([4]; Alzheimer's disease and progressive supranuclear palsy): well-tolerated | tolerability in clinical trial ([4]; escalating doses of up to 1000 mg/day, 30 Alzheimer's patients, 6 weeks): generally well tolerated | Blood levels [5]: […] | Blood levels (molar) [5]: ~6.7 µM

O=C1Nc2ccc3ncsc3c2/C1=C/Nc1ccc(S(=O)(=O)Nc2ccccn2)cc1 [GW8510]
percent inhibition of activity at lower ATP (TbGSK3β [1]; 10 μM ATP, irrespective of preincubation time, four point MMOA assay (Fig 4)): 67% | ATP competition following preincubation (TbGSK3β [1]): competitive | ATP competition without preincubation (TbGSK3β [1]; no preincubation): competed with ATP | percent inhibition of activity at higher ATP (TbGSK3β [1]; 100 μM ATP, irrespective of preincubation time, four point MMOA assay (Fig 4)): 28% | IC50 (TbGSK3β [1]; [10]): 15.1 nM | IC50 (TbGSK3β [1]; [11]): 14.5 nM | time dependence: effect of 30 min preincubation on TbGSK3β activity (TbGSK3β [1]): no effect | enzyme activity following 100-fold dilution (reversibility) (TbGSK3β [2]): enzyme activity was recovered | EC50 ([6]; 48 hr, read-out: EC50 in parasite growth assay): 119 nM | EC50 ([6]; read-out: cellular activity against T. brucei): 120 nM

Nc1ncnc2c1ncn2[C@@H]1O[C@H](COP(=O)(O)OP(=O)(O)OP(=O)(O)O)[C@@H](O)[C@H]1O [ATP]
Km (TbGSK3β [1]; substrate versus rate plots (Fig 2)): 21 µM

B1: TbGSK3β (Trypanosoma brucei brucei TREU927) (protein)
chain: MSLNLTDAADDRSYKEMEKYTVERVAGQGTFGTVQLARDKSTGSLVAIKKVIQDPRFKNRELQIMQHLARLRHPNIVMLKNYFYTVGGEGRRNDVYLNVVMEFVPETLHRTCRNYYRRMTNPPLILVKVFMFQLLRSIACLHIPVINICHRDIKPHNVLVDEQTGELKLCDFGSAKRLAADEPNVAYICSRYYRAPELIFGNQFYTTAVDIWSVGCIFAEMLLGEPIFCGENTSGQLREIVKILGKPTKEELHKLNGSSTEINANAKATPWENVFKQPLPAEVYDLCGKIFKYVPDQRITPLDALCHPFFNELREPTTKLPSGNPLPAHLYQFTPDEVEAMTEAQREYLLKK
notes: Full-length TbGSK3β (Gene DB ID Tb927.10.13780); 6X His (C); made in house; host or cells: BL21 (DE3) E. coli
Km [7]: 23 µM
